In patent publication US12458621B1, “Application of genipin beta-methyl derivative gen-17 in preparation of drug for prevention and treatment of acute severe pneumonia” (KUNMING MEDICAL UNIVERSITY, priority 2024, dated 2025):

Experiments:
Assay type in all cases: in vivo, Kunming mice
SOD = SOD activity in lung tissue; details: compared with LPS group
Experimental: The dosage is converted according to the weight of the mice, and the gavage volume is 20 milliliters per kilogram (mL/kg), and the gavage is continued for 3 days. One hour after the gavage on the third day, the ALI model is established by tracheal instillation of LPS solution. […] After the mice are awake, they are raised as usual. 2.3 Treatment of Experimental Animals and Collection of Lung Tissue Specimens
(§1) Samples are collected 24 hours after the animal model is established. The mice are weighed and 12 mice in each group are sacrificed. Lung tissues are collected and the whole lung wet weight is measured. […] After tidying, the lungs are photographed, excess tissues such as the trachea are cleared away, and the wet weight of the whole lung is measured to calculate the lung index. • (3) The upper lobe of the left lung is fixed in 4% neutral paraformaldehyde, fixed for 24 hours, paraffin-embedded and sectioned for HE staining. • (4) The remaining lung tissues are put into centrifugal tubes separately, quickly frozen in liquid nitrogen, and then stored at −80° C. after the experiment, which is used for the detection of MDA, SOD, western blotting (WB) and reverse transcription polymerase chain reaction (RT-PCR). […]
The lung tissue is taken out from −80° C., and its weight is accurately measured.

HO-1 [1] = test: HO-1 protein in lung tissue by WB; details: Gen-17 12.5, 25, 50 mg/kg gavage, ALI mice
Experimental: (§2) A total of 144 SPF-grade healthy Kunming mice, aged 5-7 weeks and weighing 18-22 g, are weighed and randomly allocated into six experimental groups: control group (NS), model group (LPS), dexamethasone group (DEX, […] per kilogram abbreviated as mg/kg), genipin beta-methyl derivative low-dose group (12.5 mg/kg), genipin beta-methyl derivative medium-dose group (25 mg/kg), and genipin beta-methyl derivative high-dose group (50 mg/kg), 24 animals per group, in which 12 animals are used to take lung tissue for the detection of other indicators, and another 12 animals are used to collect BALF. […]
as §1, with “The mice are weighed and 12 mice in each group are sacrificed.” left out

TNF-α = TNF-α mRNA in lung tissue by qRT-PCR
Experimental: as §2
as §1, with “The mice are weighed and 12 mice in each group are sacrificed.” left out

iNOS = iNOS mRNA in lung tissue by qRT-PCR; details: Gen-17 (12.5, 25, 50 mg/kg gavage) compared with LPS group (P<0.001)
Experimental: as §2
as §1, with “The mice are weighed and 12 mice in each group are sacrificed.” left out

HO-1 [2] = test: HO-1 gene expression in lung tissue by qRT-PCR
Experimental: as §2
as §1, with “The mice are weighed and 12 mice in each group are sacrificed.” left out

LPS-induced ALI mice [3] = test: Lung index (lung wet weight/body weight), LPS-induced ALI mice
Experimental: (§3) A total of 144 SPF-grade healthy Kunming mice, aged 5-7 weeks and weighing 18-22 g, are weighed and randomly allocated into six experimental groups: control group (NS), model group (LPS), dexamethasone group (DEX, […] per kilogram abbreviated as mg/kg), genipin beta-methyl derivative low-dose group (12.5 mg/kg), genipin beta-methyl derivative medium-dose group (25 mg/kg), and genipin beta-methyl derivative high-dose group (50 mg/kg), 24 animals per group, in which 12 animals are used to take lung tissue for the detection of other indicators, and another 12 animals are used to collect BALF.
(§4) All mice are gavaged with a same volume of 0.9% normal saline once a day in the NS group and the LPS group, DEX solution (0.39 mg/kg) is gavaged once a day in the DEX group, low-dose Gen-17 solution (12.5 mg/kg) is gavaged once a day in the medium-dose Gen-17 group, medium-dose Gen-17 solution (25 mg/kg) is gavaged once a day in the high-dose Gen-17 group, and high-dose Gen-17 solution (50 mg/kg) is gavaged once a day in the high-dose Gen-17 group. The dosage is converted according to the weight of the mice, and the gavage volume is 20 milliliters per kilogram (mL/kg), and the gavage is continued for 3 days. One hour after the gavage on the third day, the ALI model is established by tracheal instillation of LPS solution. The specific experimental procedures are as follows. • (1) Before the operation, the mice are anesthetized by intraperitoneal injection of 1% sodium pentobarbital (30 mg/kg) according to their body weight. • (2) Limbs of anesthetized mice are fixed with rubber bands, teeth are wired with thin threads, and neck skin is disinfected with 75% alcohol. • (3) A subcutaneous tissue is separated along a longitudinal incision in a middle of the mouse neck until a cartilage ring appeared in an exposed trachea. • (4) A microinjector is inserted into the trachea in parallel towards a proximal end for about 1 centimeter (cm). Sterile NS is slowly dripped into the trachea of the control group, and LPS is dripped into the trachea of the other groups. • (5) After pulling out the microinjector, the mice are upright immediately, rotated and shaken evenly for 2 minutes (min), then the neck wound is sutured, and the state of the mice is observed. After the mice are awake, they are raised as usual. 2.3 Treatment of Experimental Animals and Collection of Lung Tissue Specimens
as §1, with “measured. The lung tissues are packaged for hematoxylin and eosin (HE) staining, MDA and SOD content determination, gene and protein detection.” for “measured.”

LPS-induced ALI mice [4] = test: Total protein concentration in BALF by BCA; details: compared with LPS group (P<0.05)
Experimental: as §3
as §4, with “Sterile NS is slowly dripped into the trachea of the control group, and LPS is dripped into the trachea of the other groups. • (5) After pulling out the microinjector, the mice are upright immediately, rotated and shaken evenly for 2 minutes (min), then the neck wound is sutured, and the state of the mice is observed. After the mice are awake, they are raised as usual. 2.3 Treatment of Experimental Animals and Collection of Lung Tissue Specimens” left out

LPS-induced ALI mice [5] = test: Total cell count in BALF
Experimental: as §3, §4
BALF is collected 24 hours after the establishment of the animal model. First, the remaining 12 mice in each group are weighed, and then BALF is extracted. The extracted BALF is used for total cell count, total protein content determination and enzyme-linked immunosorbent assay (ELISA) determination of IL-1B, IL-6 and TNF-α in BALF. The specific experimental procedures are as follows. • (1) After weighing, the mice are anesthetized by intraperitoneal injection of pentobarbital sodium according to their weight; • (2) When the tail root, hind limbs, eyelash reflex and other activities of mice disappear, and the mice breathe slowly and evenly, the limbs and teeth of mice are fixed, the neck skin of mice is disinfected with 75% alcohol, and the neck tissue is opened longitudinally, so that the tracheal cartilage ring is exposed. Tracheal puncture is performed with a 19G trocar catheter, the needle is inserted for about 1 cm, the needle core is pulled out, a 1 ml syringe is connected, and precooled normal saline (0.8 mL/time, repeat 2 times) is slowly injected. […]

[6] = high-dose Gen-17 50 mg/kg gavage

## COC(=O)C1=CO[C@@H](OC)[C@@H]2C(COC(=O)c3cccc(Br)c3)=CC[C@H]12 [Gen-17, genipin beta-methyl derivative]
SOD; after drug treatment
  SOD activity in lung tissue: significantly increase the SOD activity
SOD; [6]
  SOD activity in lung tissue (increase): statistical significance (P<0.05)
HO-1 [1]
  expression of HO-1 protein in lung tissue, overall result: upregulate the expression of Nrf2 and HO-1 protein
TNF-α; Gen-17 (12.5, 25, 50 mg/kg gavage) compared with LPS group (P<0.001)
  mRNA expression of TNF-α in lung tissue: significantly reduce the expression
TNF-α; low-dose Gen-17 12.5 mg/kg gavage, compared with DEX group (P<0.001)
  mRNA expression of TNF-α in lung tissue: statistical significance
iNOS
  mRNA expression of iNOS in lung tissue: significantly reduce the expression
HO-1 [2]; Gen-17 compared with DEX group (P<0.001)
  expression of HO-1 gene in lung tissue: statistically significant in upregulating the expression of HO-1 gene
HO-1 [2]; Gen-17 group compared with NS group
  expression of HO-1 gene in lung tissue: significantly decreased (P<0.001)
LPS-induced ALI mice [3]; Gen-17 12.5, 25, 50 mg/kg gavage, ALI mice
  degree of pulmonary edema (lung index), overall result: reduce the degree of pulmonary edema in ALI mice to varying degrees
LPS-induced ALI mice [3]; Gen-17 groups (12.5, 25, 50 mg/kg gavage) compared with NS group
  lung index: statistically significant (P<0.05)
LPS-induced ALI mice [3]; high-dose Gen-17 50 mg/kg gavage, compared with LPS group
  lung index: statistically significant (P<0.01)
LPS-induced ALI mice [3]; low-dose Gen-17 12.5 mg/kg gavage, compared with DEX group (P<0.05)
  lung index: increases most significantly
LPS-induced ALI mice [3]; medium-dose Gen-17 25 mg/kg gavage, compared with LPS group
  lung index: statistically significant (P<0.01)
LPS-induced ALI mice [4]; [6]
  total protein content in BALF: significantly reduced
LPS-induced ALI mice [4]; low-dose Gen-17 12.5 mg/kg gavage
  total protein content in BALF: significantly reduced
LPS-induced ALI mice [4]; middle-dose Gen-17 25 mg/kg gavage
  total protein content in BALF: significantly reduced
LPS-induced ALI mice [5]; Gen-17 groups (12.5, 25, 50 mg/kg gavage) compared with LPS group (P<0.001)
  total cell counts in BALF: decreased significantly
LPS-induced ALI mice [5]; low-dose Gen-17 12.5 mg/kg gavage, compared with DEX group (P<0.01)
  total cell counts in BALF: significantly increased
LPS-induced ALI mice [5]; low-dose Gen-17 12.5 mg/kg gavage, compared with NS group (P<0.001)
  total cell counts in BALF: significantly increased
LPS-induced ALI mice [5]; middle-dose Gen-17 25 mg/kg gavage, compared with DEX group (P<0.01)
  total cell counts in BALF: significantly increased
LPS-induced ALI mice [5]; middle-dose Gen-17 25 mg/kg gavage, compared with NS group (P<0.001)
  total cell counts in BALF: significantly increased
